Results published in the supplement of paper PMC12137928.
Counter-ions that a name gives are not always drawn.

How the values were obtained:
HCT116 [1] = settings: 72 h
Procedure, shortened: (§1)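 HCT116 cells were seeded at 250 per well in 1536-well plates and left 5 h to attach. CellTiter-Glo luminescence was scaled to vehicle (0%) and positive control (-100%), then pattern-corrected. IC50 and maximal efficacy came from four-parameter Hill fits.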

HCT116 [2] = experiment: efficacy (maximum % inhibition of viability vs DMSO); higher = more cytotoxic; settings: 72 h
Procedure, shortened: as §1

Structure (SMILES)	IC50 cell viability (HCT116 [1]; ICRF193 0 nM)	IC50 cell viability (HCT116 [1]; ICRF193 200 nM)	efficacy (HCT116 [2]; ICRF193 200 nM)	efficacy (HCT116 [2]; ICRF193 0 nM)
Cc1cc(N)c2ccccc2[n+]1CCCCCCCCCC[n+]1c(C)cc(N)c2ccccc21 [Dequalinium dichloride]	> 45.8 µM	2.98 µM	55.3%	–
CC1(S(=O)(=O)O)CC(=O)c2ccccc2C1=O (centres undefined) [Menadione sodium bisulfite]	18.3 µM	29.1 µM	40.7%	102%
C/C(=C(/OCCOc1ccc(Cl)cc1)c1ccc(Cl)cc1Cl)n1ccnc1 [Omoconazole]	18.3 µM	23.1 µM	62.4%	41.1%
N#CC[C@H](C1CCCC1)n1cc(-c2ncnc3[nH]ccc23)cn1 [Ruxolitinib]	29.1 µM	29.1 µM	88.8%	85.9%
C[C@@H]1O[C@@H](O[C@H]2C[C@@H](O)[C@]3(CO)[C@H]4[C@H](O)C[C@]5(C)[C@@H](C6=CC(=O)OC6)CC[C@]5(O)[C@@H]4CC[C@]3(O)C2)[C@H](O)[C@H](O)[C@H]1O [Ouabain octahydrate]	0.116 µM	0.13 µM	84.4%	104%
CN1CCN(CCCN2c3ccccc3Sc3ccc(C(F)(F)F)cc32)CC1 [Fluoperazine dihydrochloride]	18.3 µM	18.3 µM	94.5%	92.3%
CC[C@@]1([C@@H]2O[C@@H]([C@H]3O[C@@](O)(CO)[C@H](C)C[C@@H]3C)C[C@@H]2C)CC[C@H]([C@]2(C)CC[C@]3(C[C@H](O)[C@@H](C)[C@@H]([C@@H](C)[C@@H](OC)[C@H](C)C(=O)O)O3)O2)O1 [Monensin sodium salt]	3.18 µM	3.18 µM	83.4%	81.1%
Oc1c(Cl)cc(Cl)c(Cl)c1Cc1c(O)c(Cl)cc(Cl)c1Cl [Hexachlorophene]	2.59 µM	6.51 µM	45.6%	82.5%
C/C=C(/C(=C/C)c1ccc(O)cc1)c1ccc(O)cc1 [Dienestrol]	29.1 µM	> 45.8 µM	–	74.2%
CO[C@@H]1[C@@H](O[C@@H]2O[C@H](C)[C@@H](O[C@H]3C[C@@](C)(O)[C@@H](OC(=O)CC(C)C)[C@H](C)O3)[C@H](N(C)C)[C@H]2O)[C@@H](CC=O)C[C@@H](C)C(=O)/C=C/[C@@H]2O[C@H]2C[C@@H](C)OC(=O)C[C@H]1OC(C)=O [Carbomycin A]	25.9 µM	20.6 µM	91.2%	93%
Oc1c(Cl)cc(Cl)c2cccnc12 [Chloroxine]	29.1 µM	29.1 µM	112%	103%
CC(=O)S[C@@H]1CC2=CC(=O)CC[C@]2(C)[C@H]2CC[C@@]3(C)[C@@H](CC[C@@]34CCC(=O)O4)[C@H]12 [Spironolactone]	16.4 µM	20.6 µM	73.6%	50.9%
CCN1\C(=C/C=C/C=C/c2sc3ccccc3[n+]2CC)Sc2ccccc21 [Dithiazanine chloride]	23.1 µM	20.6 µM	99%	96.7%
CCc1cc2c(cc1CC)CC(NC[C@H](O)c1ccc(O)c3[nH]c(=O)ccc13)C2 [Indacaterol (maleate)]	18.3 µM	20.6 µM	91.6%	82.9%
COc1ccc(Cc2nccc3cc(OC)c(OC)cc23)cc1OC [Papaverine hydrochloride]	> 45.8 µM	3.66 µM	41.6%	–
O=C1CCc2ccc(OCCCCN3CCN(c4cccc(Cl)c4Cl)CC3)cc2N1 [Aripiprazole]	11.6 µM	9.2 µM	59.1%	52.1%
Cc1ccc(C(=O)OCc2ccc([C@@H](CN)C(=O)Nc3ccc4cnccc4c3)cc2)c(C)c1 [Netarsudil]	14.2 µM	8.96 µM	94.1%	104%
Cc1cccc(C)c1OCC(=O)N[C@@H](Cc1ccccc1)[C@@H](O)C[C@H](Cc1ccccc1)NC(=O)[C@H](C(C)C)N1CCCNC1=O [Lopinavir]	18.3 µM	29.1 µM	73.7%	50.2%
Clc1ccc(CCC(Cn2ccnc2)Sc2c(Cl)cccc2Cl)cc1 (centres undefined) [Butoconazole nitrate]	20.6 µM	25.9 µM	93.9%	96%
CCCCc1oc2ccc(NS(C)(=O)=O)cc2c1C(=O)c1ccc(OCCCN(CCCC)CCCC)cc1 [Dronedarone hydrochloride]	20.6 µM	29.1 µM	68.2%	115%

Structure (SMILES)	IC50 cell viability (HCT116 [1]; ICRF193 0 nM)	IC50 cell viability (HCT116 [1]; ICRF193 200 nM)	efficacy (HCT116 [2]; ICRF193 200 nM)	efficacy (HCT116 [2]; ICRF193 0 nM)
COC1=C(OC)C(=O)C(CCCCCCCCCCO)=C(C)C1=O [Idebenone]	20.6 µM	20.6 µM	56.6%	49.5%
OCCN1CCN(CCCN2c3ccccc3Sc3ccc(Cl)cc32)CC1 [Perphenazine]	23.1 µM	23.1 µM	115%	108%
NS(=O)(=O)c1cc2c(cc1C(F)(F)F)NC(Cc1ccccc1)NS2(=O)=O (centres undefined) [Bendroflumethiazide]	> 45.8 µM	0.92 µM	68.8%	–
Cc1cc(C(C#N)c2ccc(Cl)cc2)c(Cl)cc1NC(=O)c1cc(I)cc(I)c1O (centres undefined) [Closantel]	9.2 µM	10.3 µM	77.1%	70.3%
CC(C)C(=O)OCc1cccc(OC(=O)[C@@H]2N3C(=O)[C@@H](NC(=O)Cc4ccccc4)[C@H]3SC2(C)C)c1 [Tobicillin]	29.1 µM	29.1 µM	103%	122%
COC(=O)Nc1nc2cc([S+]([O-])c3ccccc3)ccc2[nH]1 (centres undefined) [Oxfendazole]	14.6 µM	2.06 µM	49.7%	44.2%
C=C1CC[C@H](O)C/C1=C/C=C1\CCC[C@]2(C)[C@@H]([C@H](C)CCCC(C)C)CC[C@@H]12 [CHOLECALCIFEROL]	23.1 µM	23.1 µM	79.4%	87.9%
CC(=O)O[C@H]1C(=O)[C@@]2(C)[C@H]([C@H](OC(=O)c3ccccc3)[C@]3(O)C[C@H](OC(=O)[C@H](O)[C@@H](NC(=O)c4ccccc4)c4ccccc4)C(C)=C1C3(C)C)[C@]1(OC(C)=O)CO[C@@H]1C[C@@H]2O [Paclitaxel]	0.0058 µM	0.00461 µM	61.8%	71.1%
O=C(CCCN1CCN(c2ccccn2)CC1)c1ccc(F)cc1 [Azaperone]	> 45.8 µM	0.206 µM	87.6%	–
Cc1[nH]c2ccccc2c1CCNCc1ccc(/C=C/C(=O)NO)cc1 [Panobinostat]	0.0651 µM	0.058 µM	94.8%	95.6%
COc1cc([C@@H]2c3cc4c(cc3[C@@H](O[C@@H]3O[C@@H]5CO[C@@H](c6cccs6)O[C@H]5[C@H](O)[C@H]3O)[C@H]3COC(=O)[C@H]23)OCO4)cc(OC)c1O [Teniposide]	2.31 µM	1.83 µM	103%	92%
COc1ccccc1N1CCN(CC(O)COc2cccc3ccccc23)CC1 (centres undefined) [Naftopidil]	> 45.8 µM	23.1 µM	62.6%	–
CC(C)(C)c1nc(-c2cccc(NS(=O)(=O)c3c(F)cccc3F)c2F)c(-c2ccnc(N)n2)s1 [Dabrafenib]	23.1 µM	9.2 µM	81.6%	46.2%
CCCCCCCCCCCCCCCC[n+]1ccccc1 [Cetylpyridinium bromide]	2.59 µM	2.59 µM	90.4%	90.6%
COC(=O)[C@H]1[C@H]2C[C@@H]3c4[nH]c5ccccc5c4CCN3C[C@H]2C[C@@H](OC(=O)c2cc(OC)c(OC)c(OC)c2)[C@@H]1OC [Deserpidine]	29.1 µM	25.9 µM	48.2%	59.1%
O=C(/C=C/c1cccc(S(=O)(=O)Nc2ccccc2)c1)NO [Belinostat]	1.3 µM	1.16 µM	62.1%	100%
Nc1ccn([C@@H]2O[C@H](CO)[C@@H](O)C2(F)F)c(=O)n1 [Gemcitabine]	0.092 µM	0.0461 µM	56%	53.5%
CS(=O)(=O)CCNCc1ccc(-c2ccc3ncnc(Nc4ccc(OCc5cccc(F)c5)c(Cl)c4)c3c2)o1 [Lapatinib]	16.4 µM	20.6 µM	110%	106%
Oc1c(I)cc(Cl)c2cccnc12 [Clioquinol]	29.1 µM	29.1 µM	98.1%	99.1%
COc1cc2c(cc1Cc1cccc(Cl)c1F)c(=O)c(C(=O)O)cn2[C@H](CO)C(C)C [Elvitegravir]	18.3 µM	20.6 µM	83%	71.8%
